pEC50: −log10 of the molar value.
Legend:
anesthetized dog = experiment: in vivo myocardial inotropic activity in the anesthetized dog; settings: 1.0 mg/kg, change from control data prior to dosing
Protocol: TEST FOR IN VIVO MYOCARDIAL INOTROPIC ACTIVITY IN THE ANESTHETIZED DOG
Adult mongrel dogs of either sex are anesthetized with pentobarbital, 35 mg/kg, IV, and are maintained under anesthesia with a continuous infusion of pentobarbital, 3.5 mg/kg/hr. The trachea is intubated, but the animals are permitted to breathe spontaneously. A cannula is inserted into the femoral vein for administering test agents. A Millar catheter tip pressure transducer or a fluid filled catheter is inserted into the ascending aorta via the femoral artery for measuring pressure. A Millar catheter tip pressure transducer is passed into the left ventricle via the left carotid artery for measuring left ventricular blood pressure. Needle electrodes are placed subcutaneously for recording a lead II electrocardiogram. Before administering test agents, control data is acquired over a period of at least thirty minutes.
The test agent is dissolved in dimethylacetamide. Each dose is administered in a volume of 0.5 ml over a period of one minute. Appropriate vehicle controls are also administered.
When tested by this protocol, representative compounds of formula I, when administered at a dose of 1 mg/kg, produced an increase in contractility, a minimal increase in blood pressure, and an increase in heart rate as shown in the following Table B.

[1] = test system: isolated Langendorff rat heart; experiment: isolated Langendorff rat heart (CVIH), coronary flow; settings: In Vitro Langendorf Isolated Rat Heart, constant perfusion pressure 70 mm Hg, 37° C.; for EC25: read-out: EC 25 (Coronary Flow); for pEC50: read-out: EC 50 (Coronary Flow)
Protocol: TEST FOR INOTROPIC, CHRONOTROPIC, AND VASCULAR ACTIVITIES IN THE ISOLATED LANGENDORFF RAT HEART (CVIH)
Male rats (400-600 gms) are pretreated with 2000 units Na heparin (Parke-Davis) and anesthetized with Na pentobarbital (50 mg/kg, Butler Co.) administered intraperitoneally. Once anesthetized, the rat heart is rapidly excised, the ascending aorta fitted to the aortic perfusion cannula, and secured with a ligature. The coronary arteries were perfused initially at a rate of about 15 ml/min for two to three minutes, after which they are perfused at constant pressure of 70 mm Hg and temperature of 37° C. The electrocardiogram (ECG) is recorded using two platinum electrodes positioned at the base and apex of the left ventricle. A second heart is excised, cannulated, and perfused by the same method outlined above. Both hearts are tested in parallel. The standard physiological salt solution (PSS) is a modified Krebs-Hanseleit bicarbonate buffer of the following composition in mM concentration: NaCl, 127; NaHCO3, 25; dextrose, 5.5; Na Pyruvate, 2.0; KCl, 4.7;MgSO4, 1.1; KH2 PO4, 1.2; CaCl2 ·2H2O, 2.5; CaNa2 EDTA, 0.05.
A 30-minute stabilization period is observed before starting the test protocol.
Microprocessor Controlled Coronary Perfusion and Drug Delivery System
The microprocessor control system is a servo mechanism which permits coronary perfusion pressure (CPP) and drug concentration to be maintained constant independent of changes in coronary flow. The level at which CPP and drug concentration are maintained can be changed by commands communicated through the microprocessor keyboard. Dose-response curves are carried out by perfusing a solution at a specified drug concentration (DC) at rates proportional to total coronary flow (CFT). Drug concentrations are increased by proportionate increases in the rate of DC infusion over CFT via the microprocessor keyboard. The proportional flow rates for DC:CFT is about 0.0002:1 at the low end and 0.02:1 at the high end of the dose-response curve. Dose-response curves encompassing at least two log doses are carried out by preparing two DCs with a concentration difference of 1:100. Following the first dose range of two log doses, the DC is switched, proportional pumping rate adjusted, and the dose-response curve continued for another two log doses. The standard dose-response curve is carried out in one-half log dose increments starting at a subthreshold dose and ending at a dose which produces near maximal response in activity. Standard reference compounds are tested over the range of 10^-9 to 10^-6 M.
Measurements are for coronary flow (CF). Units are: CF, milliliters/minute (ml/min). CF is calculated by recording analog outputs from pumps 1 and 2. Outputs from pump #1=CFT and the output from pump #2=CF for heart B (CFB) CF for heart A (CFA) is calculated (CFT -CFB =CFA).
Using the above coronary blood flow evaluation technique, the effects of the compounds of each indicated example is shown as the EC (effective concentration) 25/(effective concentration) EC 50.

| Structure (SMILES) | Blood Pressure, percent increase (+) or decrease (-) from control data (anesthetized dog) | Contractility, percent increase (+) or decrease (-) from control data (anesthetized dog) | Heart Rate, percent increase (+) or decrease (-) from control data (anesthetized dog) | EC25 [1] | pEC50 [1] |
| --- | --- | --- | --- | --- | --- |
| COC(=O)/C=C/c1ccc(OC)c(OC2CCCC2)c1 [Example 3, Methyl 3-(3-cyclopentoxy-4-methoxyphenyl)-E-propenoate] | +16% | +77% | +20% | 2 µM | < 3.30 |
| COC(=O)CCc1ccc(OC)c(OC2CCCC2)c1 [Example 9, Methyl 3-(3-cyclopentoxy-4-methoxyphenyl)-n-propionate] | +5% | +36% | +41% | 15 µM | 4.66 |
| COc1ccc(CCC(=O)O)cc1OC1CCCC1 [Example 13, 3-(3-Cyclopentoxy-4-methoxyphenyl)-n-propanoic acid] | +9% | +47% | +23% | 4 µM | 4.82 |
| COc1ccc(CCC(N)=O)cc1OC1CCCC1 [Example 16, 3-(3-Cyclopentoxy-4-methoxyphenyl)-n-propionyl amide] | +5% | +127% | +25% | 3 µM | 5.00 |
| COc1ccc(CCCO)cc1OC1CCCC1 [Example 19, 3-(3-Cyclopentoxy-4-methoxyphenyl)-n-1-propanol] | +9% | +91% | +25% | 2 µM | 5.15 |
| COc1ccc(/C=C/C=O)cc1OC1CCCC1 [Example 21, 3-(3-Cyclopentoxy-4-methoxyphenyl)-E-propene-1-aldehyde] | -1% | +62% | +35% | 1.1 µM | 5.70 |

Source: patent US5274002A, “Trisubstituted phenyl analogs having activity for congestive heart failure” (Warner-Lambert Company, priority 1990, dated 1993)
